According to patent publication US9376700B2, “Methods of modifying N-termini of a peptide or protein using transferases” (The Trustees of the University of Pennsylvania, priority 2012, dated 2016):
Entries after “also recorded” stand apart in the source; their conditions may differ.

Legend:
Assay type in all cases: biochemical
[1] = target: T1, E. coli aminoacyl tRNA transferase (AaT) (Escherichia coli, UniProt P0A8P1); experiment: α-Casein labeling in cleared E. coli cell lysate with unpurified AaT, then click reaction with FlAlk; conditions: fluorescence after labeling with FlAlk
T1 construct: made in house; host or cells: E. coli BL21-Gold (DE3), plasmid pEG6, Ni-NTA purified
T1 sequence (P0A8P1 whole entry): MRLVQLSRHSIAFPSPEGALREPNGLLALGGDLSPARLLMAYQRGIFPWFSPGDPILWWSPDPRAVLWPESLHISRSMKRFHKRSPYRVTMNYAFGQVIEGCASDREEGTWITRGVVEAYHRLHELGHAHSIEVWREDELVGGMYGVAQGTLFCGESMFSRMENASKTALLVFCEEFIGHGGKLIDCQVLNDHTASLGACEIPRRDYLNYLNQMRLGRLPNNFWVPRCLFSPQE
Procedure: AaT was expressed in E. coli BL21-Gold (DE3) cells as previously described. A cleared cell lysate was obtained by centrifugation following cell lysis using sonication. Protein were modified in a final reaction volume of 110 μL with Azf-A (4c, 3 mM) using AaT (25 from cleared lysate in AaT buffer (50 mM HEPES pH 8.0, 150 mM KCl, 10 mM MgCl2). α-Casein (0.012 mg or 0.12 mg) was added to the reaction and incubated at 37° C. for 2 h, after 1 h an additional 0.3 μmole of 4c was added. For control reactions, equivalent volumes were replaced with water. Excess 4c was removed by buffer exchange four times against phosphate buffered saline (PBS, 12 mM NaH2PO4, 50 mM NaCl, 4.7 mM. KCl, pH 8.0) by Spectra/Por 1 dialysis tubing. Aliquots (18 μL) of 4c modified lysates were diluted to a final volume of 22 pit using PBS containing FlAlk (182 μM) for copper-catalyzed “click” reactions. The “click” reaction was initiated by addition of CuSO4 (100 μM), THPTA (500 μM), and sodium ascorbate (5 mM). The reaction mixtures were analyzed by PAGE gel using Coomassie staining and fluorescence as above.
After AaT-catalyzed modification of α-casein with Azf, residual 4c was removed by dialysis. […] Azf transfer was successful, as shown by the observation of fluorescence after labeling with FlAlk.

[2] = target: T2, E. coli aminoacyl transferase (AaT) (Escherichia coli, UniProt P0A8P1); experiment: LysAlaAcm ligation assay: AaT-catalyzed transfer from aminoacyl adenosine donor to LysAlaAcm, HPLC at 325 nm; parameters: made in house; host or cells: E. coli BL21-Gold (DE3), plasmid pEG6, Ni-NTA purified; conditions: single addition of 1 mM donor, 100 μM LysAlaAcm, 2.26 μM AaT, 37° C., 4 h, no additive
T2 sequence (P0A8P1 whole entry): as above
Procedure: Each ligation reaction, 125 μL total volume, contained the following reagents: aminoacyl adenosine donor (1 mM), recombinant His10-tagged E. coli aminoacyl transferase (2.26 μM), and LysAlaAcm (100 μM) in the AaT Ligation Buffer (50 mM HEPES pH 8.0, 150 mm KCl, 10 mM MgCl2). The reaction mixtures were incubated at 37° C. for four hours and quenched with 1% acetic acid. The proteins were extracted from the reactions via acetone precipitation. The reactions were precipitated using 4× reaction volume of acetone and cooled at −20° C. for 1 h. Next, the reactions were centrifuged at 13,200 rpm at 4° C. for 20 min to separate the reaction from precipitated protein. The supernatant was transferred to fresh 1.5 mL centrifuge tubes and allowed for acetone evaporation overnight at room temperature. After acetone evaporation, the supernatant was dried in a Speedvac (Savant, Thermo Scientific, Fisher Inc.) for 30 min to remove residual acetone. The resulting reaction volume was dissolved up to 1.2 mL using Milli-Q water and analyzed by HPLC (gradient below) to determine ligation yield by integration of separated peak intensities monitored at 325 nm. Collected HPLC fractions were characterized through MALDI MS analysis. […] Reactions using Phe-pdCpA as donor were carried out in an identical fashion (Ellman, et al., 1991, Methods Enzymol. 202:301-336).
All HPLC analyses of LysAlaAcm ligations were monitored on an Agilent HPLC using a Waters C18 column (Milford, Mass.).
All HPLC analyses of LysAlaAcm ligations were monitored as described elsewhere herein (Gradient 1).
The extent of transfer was evaluated by HPLC analysis of reactions with adenosyl donor, AaT or BpT, and an aminocoumarin-labeled reporter peptide (for AaT, LysAlaAcm was used as previously described by Tirrell and co-workers; for BpT, AspAlaAcm was used in an analogous fashion) (Connor et al., 2008, ChemBioChem 9:366-369). Monitoring LysAlaAcm or AspAlaAcm acylation in crude reaction mixtures using absorbance at 325 nm conveniently eliminates background due to other proteins and nucleic acids, although some non-natural amino acids such as naphthylalanine (Nap) and methoxycoumarinylalanine (Mcm) also absorb in this range.
To evaluate substrate scope, reactions were analyzed after 4 h, when transfer should be complete for the fully enzymatic reaction with Phe tRNA synthetase (Connor et al., 2008, ChemBioChem 9:366-369).

[3] = target: T1, E. coli aminoacyl tRNA transferase (AaT); experiment: AaT-catalyzed α-casein N-terminal modification (Edman degradation, tryptic digest MALDI MS); conditions: double addition of donor
Procedure: HEPES pH 8.0, 1.50 mM KO, 10 mM MgCl2) and AaT (0.05 mg). The reaction mixture was incubated at 37° C. for 12 h, AaT was removed using Ni^2+ resin (Ni-NTA Superflow, Qiagen), and then buffer exchanged four times into phosphate buffered saline (PBS, 12 mM NaH2PO4, 50 mM NaCl, 4.7 mM KCl, pH 8.0) by Spectra/Por 1 dialysis tubing (Spectrum Laboratories; Rancho Dominguez, Calif.). Azf-modified α-casein was used directly after buffer exchange into PBS. Aliquots (1 nmol) of α-casein were diluted into PBS (22 μL) containing either fluorescein-alkyne (FlAlk, 91 μM) or propargylamine (Alk, 227 μM) for copper-catalyzed azide-alkyne cycloaddition (CuAAC). […] Reactions were boiled with gel loading dye LDS (Pierce; Rockford, Ill.) for 10 min at 95° C. and analyzed by SDS-PAGE. Fluorescence images were obtained with a Geldoc (BioRAD; Hercules, Calif.) using an excitation wavelength of 302 nm for detection of fluorescein. α-Casein was also directly visualized by Coomassie Brilliant Blue staining.
α-Casein-Azf (33 or α-casein (33 μg) was digested with sequencing grade modified Trypsin (0.6 μg) in 27 μL of 25 mM ammonium bicarbonate pH 7.5 (freshly prepared). Digestions were carried out at 37° C. for 14 h. Trypsin digest aliquots (1 μL) were combined with α-cyano-4-hydroxycinnamic acid (1 μL of a saturated solution in 1:1 H2O/CH3CN with 1% TFA) and analyzed by MALDI MS. […]

[4] = target: T2, E. coli aminoacyl transferase (AaT); experiment: A/AMP/ATP/pdCpA inhibition studies of ligation with Phe donor 4a; parameters: made in house; host or cells: E. coli BL21-Gold (DE3), plasmid pEG6, Ni-NTA purified
Procedure: Each ligation reaction was performed as described elsewhere herein.
To better understand limitations on the yield from AaT reactions, the possibilities of inhibition by hydrolyzed substrate or aminoacylated product were assessed. Since the acyl adenosine donor substrate is not regenerated during the reaction (unlike the aaRS/tRNA/AaT reaction), it was hypothesized that the adenosine byproduct might inhibit further acylation by binding to AaT. To investigate this possibility, adenosine was added to the reaction at varying concentrations and monitored the reaction timecourse by fluorescence spectroscopy and by HPLC.

[5] = target: T2, E. coli aminoacyl transferase (AaT); experiment: Real time fluorometric monitoring of Nap transfer from 4d to LysAlaAcm; parameters: made in house; host or cells: E. coli BL21-Gold (DE3), plasmid pEG6, Ni-NTA purified; conditions: up to 1 mM exogenous adenosine, real time fluorescence
Procedure: Real time fluorescent monitoring of Nap addition to LysAlaAcm was carried out using reaction solutions prepared on the 500 μL scale in stirred quartz cuvettes with 1.00 cm path lengths. Reagent concentrations were as described elsewhere herein, except that donor 4d was withheld until the cuvette was placed in the fluorometer and temperature equilibrated. Reactions were then initiated by addition of 20 μL of 25 mM Nap-A (4d) stock or water (for negative controls). Fluorescence emission at 390 nm was monitored after excitation at 325 nm. Prior calibration had shown that NapLysAlaAcm (5d) concentrations could be estimated from fluorescence intensity readings (F5d) using the equation [5d]=(1−(F5d/FControl))1.39[LysAlaAcm], where fControl is the fluorescence reading of the reaction with water added instead of 4d. […]
In order to monitor conversion of LysAlaAcm to NapLysAlaAcm (5d) in real time, a fluorometric assay was designed based on intramolecular quenching of aminocoumarin fluorescence by the naphthyl ring. Equimolar solutions of LysAlaAcm and NapLysAlaAcm, as well as mixtures of the two solutions, were prepared and their fluorescence was compared as depicted in FIG. 18A. […]
The present experiment was also achieved to monitor product formation in real time based on partial quenching of coumarin fluorescence upon addition of Nap to the LysAlaAcm peptide to form 5d. […]

Row | Compound | Azf transfer to α-casein in crude E. coli lysate with unpurified AaT [1] | Ligated Product Yield (%) [2] | Conversion of α-casein, trypsin digest and MALDI MS [3] | Inhibition of addition from the Phe donor 4a ([4]; 5 mM added) | Ki ([4]; Phe donor 4a transfer reaction) | Inhibition of Nap transfer to LysAlaAcm from 4d [5]
1 | [N-]=[N+]=Nc1ccc(C[C@H](N)C(=O)O[C@@H]2[C@H](O)[C@@H](CO)O[C@H]2n2cnc3c(N)ncnc32)cc1 [4c, (S)-(2R,3R,4R,5R)-2-(6-amino-9H-purin-9-yl)-4-hydroxy-5-(hydroxymethyl)tetrahydrofuran-3-yl 2-amino-3-(4-azidophenyl)propanoate] | successful | 78.5 ± 5.2% | Complete conversion |  |  | 
2 | Nc1ncnc2c1ncn2[C@@H]1O[C@H](CO)[C@@H](O)[C@H]1O [adenosine] |  |  |  | not inhibited | > 5 mM | did not significantly inhibit; also recorded: No significant inhibition
